Source: ChEMBL document CHEMBL3112450, “Synthesis and in vitro antitumor evaluation of primary amine substituted quinazoline linked benzimidazole” (Bioorg Med Chem Lett, 2014)

What was measured:
Format in all cases: functional
SK-MEL-28 = test: Cytotoxicity against human SK-MEL-28 cells assessed as cell growth at 10^-5 M after 48 hrs by SRB assay; settings: SK-MEL-28, 48 h, read-out: Activity
ACHN = test: Cytotoxicity against human ACHN cells assessed as cell growth at 10^-5 M after 48 hrs by SRB assay; settings: read-out: Activity
HOP-62 = test: Cytotoxicity against human HOP62 cells assessed as cell growth at 10^-5 M after 48 hrs by SRB assay; settings: HOP-62, 48 h, read-out: Activity
SK-MEL-2 = test: Cytotoxicity against human SK-MEL-2 cells assessed as cell growth at 10^-5 M after 48 hrs by SRB assay; settings: SK-MEL-2, 48 h, read-out: Activity
UACC-62 = test: Cytotoxicity against human UACC62 cells assessed as cell growth at 10^-5 M after 48 hrs by SRB assay; settings: UACC-62, 48 h, read-out: Activity
HCT-116 = test: Cytotoxicity against human HCT116 cells assessed as cell growth at 10^-5 M after 48 hrs by SRB assay; settings: HCT-116, 48 h, read-out: Activity
SNB-75 = test: Cytotoxicity against human SNB75 cells assessed as cell growth at 10^-5 M after 48 hrs by SRB assay; settings: SNB-75, 48 h, read-out: Activity
[1] = Cytotoxicity against human OVCAR4 cells assessed as cell growth at 10^-5 M after 48 hrs by SRB assay; settings: OVCAR-4, 48 h, read-out: Activity
CAKI-1 = test: Cytotoxicity against human Caki1 cells assessed as cell growth at 10^-5 M after 48 hrs by SRB assay; settings: CAKI-1, 48 h, read-out: Activity
NCI-H322M = test: Cytotoxicity against human NCI-H322M cells assessed as cell growth at 10^-5 M after 48 hrs by SRB assay; settings: read-out: Activity
MDA-MB-435 = test: Cytotoxicity against human MDA-MB-435 cells assessed as cell growth at 10^-5 M after 48 hrs by SRB assay; settings: MDA-MB-435, 48 h, read-out: Activity
U-251 = test: Cytotoxicity against human U251 cells assessed as cell growth at 10^-5 M after 48 hrs by SRB assay; settings: U-251, 48 h, read-out: Activity
MOLT-4 = test: Cytotoxicity against human MOLT4 cells assessed as cell growth at 10^-5 M after 48 hrs by SRB assay; settings: MOLT-4, 48 h, read-out: Activity
Malme-3M = test: Cytotoxicity against human MALME-3M cells assessed as cell growth at 10^-5 M after 48 hrs by SRB assay; settings: read-out: Activity
LOX IMVI = test: Cytotoxicity against human LOXIMVI cells assessed as cell growth at 10^-5 M after 48 hrs by SRB assay; settings: read-out: Activity
RPMI-8226 = test: Cytotoxicity against human RPMI8226 cells assessed as cell growth at 10^-5 M after 48 hrs by SRB assay; settings: RPMI-8226, 48 h, read-out: Activity
MDA-MB-231 = test: Cytotoxicity against human MDA-MB-231 cells assessed as cell growth at 10^-5 M after 48 hrs by SRB assay; settings: MDA-MB-231, 48 h, read-out: Activity
[2] = Cytotoxicity against human Hs578T cells assessed as cell growth at 10^-5 M after 48 hrs by SRB assay; settings: Hs-578T, read-out: Activity
TK-10 = test: Cytotoxicity against human TK10 cells assessed as cell growth at 10^-5 M after 48 hrs by SRB assay; settings: TK-10, 48 h, read-out: Activity
HT-29 = test: Cytotoxicity against human HT-29 cells assessed as cell growth at 10^-5 M after 48 hrs by SRB assay; settings: HT-29, 48 h, read-out: Activity
SN12C = test: Cytotoxicity against human SN12C cells assessed as cell growth at 10^-5 M after 48 hrs by SRB assay; settings: read-out: Activity
PC-3 = test: Cytotoxicity against human PC3 cells assessed as cell growth at 10^-5 M after 48 hrs by SRB assay; settings: PC-3, 48 h, read-out: Activity
K562 = test: Cytotoxicity against human K562 cells assessed as cell growth at 10^-5 M after 48 hrs by SRB assay; settings: K562, 48 h, read-out: Activity
SK-OV-3 = test: Cytotoxicity against human SKOV3 cells assessed as cell growth at 10^-5 M after 48 hrs by SRB assay; settings: SK-OV-3, 48 h, read-out: Activity
DU-145 = test: Cytotoxicity against human DU145 cells assessed as cell growth at 10^-5 M after 48 hrs by SRB assay; settings: DU-145, 48 h, read-out: Activity
[3] = Cytotoxicity against human UACC257 cells assessed as cell growth at 10^-5 M after 48 hrs by SRB assay; settings: UACC-257, 48 h, read-out: Activity
NCI-H226 = test: Cytotoxicity against human NCI-H226 cells assessed as cell growth at 10^-5 M after 48 hrs by SRB assay; settings: NCI-H226, 48 h, read-out: Activity
SNB-19 = test: Cytotoxicity against human SNB19 cells assessed as cell growth at 10^-5 M after 48 hrs by SRB assay; settings: SNB-19, 48 h, read-out: Activity
HCT-15 = test: Cytotoxicity against human HCT15 cells assessed as cell growth at 10^-5 M after 48 hrs by SRB assay; settings: HCT-15, 48 h, read-out: Activity
BT-549 = test: Cytotoxicity against human BT549 cells assessed as cell growth at 10^-5 M after 48 hrs by SRB assay; settings: BT-549, 48 h, read-out: Activity
786-0 = test: Cytotoxicity against human 786-0 cells assessed as cell growth at 10^-5 M after 48 hrs by SRB assay; settings: 786-0, 48 h, read-out: Activity
RXF 393 = test: Cytotoxicity against human RXF393 cells assessed as cell growth at 10^-5 M after 48 hrs by SRB assay; settings: RXF 393, 48 h, read-out: Activity
SF-268 = test: Cytotoxicity against human SF268 cells assessed as cell growth at 10^-5 M after 48 hrs by SRB assay; settings: SF-268, 48 h, read-out: Activity
SW-620 = test: Cytotoxicity against human SW620 cells assessed as cell growth at 10^-5 M after 48 hrs by SRB assay; settings: SW-620, 48 h, read-out: Activity
KM12 = test: Cytotoxicity against human KM12 cells assessed as cell growth at 10^-5 M after 48 hrs by SRB assay; settings: KM12, 48 h, read-out: Activity
MDA-MB-468 = test: Cytotoxicity against human MDA-MB-468 cells assessed as cell growth at 10^-5 M after 48 hrs by SRB assay; settings: MDA-MB-468, 48 h, read-out: Activity
[4] = Cytotoxicity against human UO31 cells assessed as cell growth at 10^-5 M after 48 hrs by SRB assay; settings: UO-31, 48 h, read-out: Activity

Structure (SMILES) | growth at 10 µM (SK-MEL-28) [%] | growth at 10 µM (ACHN) [%] | growth at 10 µM (HOP-62) [%] | growth at 10 µM (SK-MEL-2) [%] | growth at 10 µM (UACC-62) [%] | growth at 10 µM (HCT-116) [%] | growth at 10 µM (SNB-75) [%] | growth at 10 µM [1] [%] | growth at 10 µM (CAKI-1) [%] | growth at 10 µM (NCI-H322M) [%] | growth at 10 µM (MDA-MB-435) [%] | growth at 10 µM (U-251) [%] | growth at 10 µM (MOLT-4) [%] | growth at 10 µM (Malme-3M) [%] | growth at 10 µM (LOX IMVI) [%] | growth at 10 µM (RPMI-8226) [%] | growth at 10 µM (MDA-MB-231) [%] | growth at 10 µM [2] [%] | growth at 10 µM (TK-10) [%] | growth at 10 µM (HT-29) [%] | also measured
C=CCn1c(C)nc2cc(Nc3nc(Nc4ccc5nc(C)n(CC=C)c5c4)nc4ccccc34)ccc21 | 106 | 104 | 101 | 121 | 95.8 | 98.9 | 90.8 | 99.5 | 101 | 109 | 108 | 94.4 | 101 | 94.5 | 93.3 | 98.8 | 90 | 100 | 130 | 103 | growth at 10 µM (SN12C): 96.5%; growth at 10 µM (PC-3): 95.8%; growth at 10 µM (K562): 102%; growth at 10 µM (SK-OV-3): 104%; growth at 10 µM (DU-145): 115%; growth at 10 µM [3]: 102%; growth at 10 µM (NCI-H226): 99.8%; growth at 10 µM (SNB-19): 100%; growth at 10 µM (HCT-15): 107%; growth at 10 µM (BT-549): 106%; growth at 10 µM (786-0): 113%; growth at 10 µM (RXF 393): 124%; growth at 10 µM (SF-268): 113%; growth at 10 µM (SW-620): 106%; growth at 10 µM (KM12): 109%; growth at 10 µM (MDA-MB-468): 118%; growth at 10 µM [4]: 89.3%
C=CCn1c(C)nc2ccc(Nc3nc(NCCO)nc4ccccc34)cc21 | 99.3 | 104 | 97.6 | 127 | 92.7 | 94.7 | 92.5 | 88.4 | 99 | 100 | 102 | 98.5 | 96.7 | 111 | 88.5 | 95.7 | 84.5 | 91.5 | 124 | 103 | growth at 10 µM (SN12C): 87.6%; growth at 10 µM (PC-3): 93.8%; growth at 10 µM (K562): 92.2%; growth at 10 µM (SK-OV-3): 109%; growth at 10 µM (DU-145): 107%; growth at 10 µM [3]: 100%; growth at 10 µM (NCI-H226): 107%; growth at 10 µM (SNB-19): 93.9%; growth at 10 µM (HCT-15): 113%; growth at 10 µM (BT-549): 96.5%; growth at 10 µM (786-0): 95.7%; growth at 10 µM (RXF 393): 116%; growth at 10 µM (SF-268): 92.5%; growth at 10 µM (SW-620): 97.7%; growth at 10 µM (KM12): 102%; growth at 10 µM (MDA-MB-468): 119%; growth at 10 µM [4]: 92.6%
C=CCn1c(C)nc2ccc(Nc3nc(Nc4ccc5nc(C)n(CC=C)c5c4)c4ccccc4n3)cc21 | -96 | -99 | -100 | -88 | -100 | -100 | -95.2 | -100 | -81 | -88 | -84 | -100 | -45.5 | -78.9 | -91 | -43.3 | -100 | -52 | -97 | -96.7 | growth at 10 µM (SN12C): -100%; growth at 10 µM (PC-3): -82%; growth at 10 µM (K562): -49%; growth at 10 µM (SK-OV-3): -100%; growth at 10 µM (DU-145): -98%; growth at 10 µM [3]: -91%; growth at 10 µM (NCI-H226): -87%; growth at 10 µM (SNB-19): -69%; growth at 10 µM (HCT-15): -74%; growth at 10 µM (BT-549): -86%; growth at 10 µM (786-0): -93.8%; growth at 10 µM (RXF 393): -93%; growth at 10 µM (SF-268): -77%; growth at 10 µM (SW-620): -91%; growth at 10 µM (KM12): -94%; growth at 10 µM (MDA-MB-468): -99%; growth at 10 µM [4]: -91.4%
C=CCn1c(C)nc2cc(Nc3nc(Nc4ccc5nc(C)n(CC=C)c5c4)c4ccccc4n3)ccc21 | -88 | -100 | -99.5 | -84.1 | -94 | -96.5 | -96.7 | -100 | -95 | -100 | -92 | -90.7 | -29 | -76 | -94 | -41 | -89 | -48.1 | -100 | -71 | growth at 10 µM (SN12C): -76%; growth at 10 µM (PC-3): -100%; growth at 10 µM (K562): -67%; growth at 10 µM (SK-OV-3): -95.7%; growth at 10 µM (DU-145): -100%; growth at 10 µM [3]: -79.8%; growth at 10 µM (NCI-H226): -47.1%; growth at 10 µM (SNB-19): -75%; growth at 10 µM (HCT-15): -78%; growth at 10 µM (BT-549): -96%; growth at 10 µM (786-0): -80%; growth at 10 µM (RXF 393): -97.4%; growth at 10 µM (SF-268): -99%; growth at 10 µM (SW-620): -76.2%; growth at 10 µM (KM12): -100%; growth at 10 µM (MDA-MB-468): -85%; growth at 10 µM [4]: -99%
C=CCn1c(C)nc2cc(Nc3nc(NCCO)nc4ccccc34)ccc21 | 101 | 90.5 | 83.3 | 102 | 85.5 | 64 | 76.4 | 65.2 | 93 | 91.3 | 92.1 | 90.9 | 56.7 | 98.6 | 85.6 | 63.4 | 72.9 | 77.5 | 118 | 64.5 | growth at 10 µM (SN12C): 84.7%; growth at 10 µM (PC-3): 69.2%; growth at 10 µM (K562): 64.1%; growth at 10 µM (SK-OV-3): 103%; growth at 10 µM (DU-145): 98.8%; growth at 10 µM [3]: 97.7%; growth at 10 µM (NCI-H226): 78.8%; growth at 10 µM (SNB-19): 90.2%; growth at 10 µM (HCT-15): 105%; growth at 10 µM (BT-549): 92.5%; growth at 10 µM (786-0): 89.1%; growth at 10 µM (RXF 393): 97.5%; growth at 10 µM (SF-268): 90.9%; growth at 10 µM (SW-620): 68.2%; growth at 10 µM (KM12): 73.1%; growth at 10 µM (MDA-MB-468): 53.5%; growth at 10 µM [4]: 72.4%
